The target of test [1] is T1, human GPR119 (Homo sapiens, UniProt Q8TDV5).
T1 sequence (Q8TDV5 1-335): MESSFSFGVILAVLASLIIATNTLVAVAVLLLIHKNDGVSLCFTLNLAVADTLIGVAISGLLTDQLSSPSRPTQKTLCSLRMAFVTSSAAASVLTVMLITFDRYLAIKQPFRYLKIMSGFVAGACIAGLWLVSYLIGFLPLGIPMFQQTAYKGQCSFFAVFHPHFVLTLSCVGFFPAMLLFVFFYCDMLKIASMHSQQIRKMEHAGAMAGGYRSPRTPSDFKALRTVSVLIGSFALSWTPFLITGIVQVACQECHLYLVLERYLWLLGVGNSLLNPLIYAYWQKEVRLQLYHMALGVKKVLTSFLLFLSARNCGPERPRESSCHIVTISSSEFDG
Description: β-Lactamase reporter functional assay (hGPR119 HEK293-CRE beta-lactamase cells). It is filed as cell-based. Particulars: for EC50: hGPR119 HEK293-CRE beta-lactamase cells, 16 h incubation, each line a separate determination, read-out: Human B-lactamase Functional EC50; for Intrinsic Activity (Human B-lactamase) / Emax: percent of maximal activity relative to standard GPR119 agonist at 10 micromolar; for Emax: read-out: Intrinsic Activity (Human B-lactamase). Also noted: host or cells: HEK293-CRE beta-lactamase; Emax: dose or concentration left out as unconfirmed. The protocol:
The assay for GPR119 agonists utilizes a cell-based (hGPR119 HEK293-CRE beta-lactamase) reporter construct where agonist activation of human GPR119 is coupled to beta-lactamase production via a cyclic AMP response element (CRE). GPR119 activity is then measured utilizing a FRET-enabled beta-lactamase substrate, CCF4-AM (Live Blazer FRET-B/G Loading kit, Invitrogen cat #K1027). Specifically, hGPR119-HEK-CRE-beta-lactamase cells (Invitrogen 2.5×10^7/mL) were removed from liquid nitrogen storage, and diluted in plating medium (Dulbecco's modified Eagle medium high glucose (DMEM; Gibco Cat # 11995-065), 10% heat inactivated fetal bovine serum (HIFBS; Sigma Cat # F4135), 1×MEM Nonessential amino acids (Gibco Cat # 15630-080), 25 mM HEPES pH 7.0 (Gibco Cat # 15630-080), 200 nM potassium clavulanate (Sigma Cat # P3494). The cell concentration was adjusted using cell plating medium and 50 microL of this cell suspension ([…]) was added into each well of a black, clear bottom, poly-d-lysine coated 384-well plate (Greiner Bio-One cat# 781946) and incubated at 37 degrees Celsius in a humidified environment containing 5% carbon dioxide. After 4 hours the plating medium was removed and replaced with 40 microL of assay medium (Assay medium is plating medium without potassium clavulanate and HIFBS). Varying concentrations of each compound to be tested was then added in a volume of 10 microL (final DMSO ≦0.5%) and the cells were incubated for 16 hours at 37 degrees Celsius in a humidified environment containing 5% carbon dioxide. Plates were removed from the incubator and allowed to equilibrate to room temperature for approximately 15 minutes. 10 microL of 6×CCF4/AM working dye solution (prepared according to instructions in the Live Blazer FRET-B/G Loading kit, Invitrogen cat #K1027) was added per well and incubated at room temperature for 2 hours in the dark. Fluorescence was measured on an EnVision fluorimetric plate reader, excitation 405 nm, emission 460 nm/535 nm. EC50 determinations were made from agonist-response curves analyzed with a curve fitting program using a 4-parameter logistic dose-response equation.

In test [2] the test system is male Wistar rats. The experiment in a line: Intraperitoneal glucose tolerance test (IPGTT). It is filed as in vivo. Particulars: rat. An excerpt:
All in vivo protocols were approved by the Pfizer's Animal Welfare Committee. Naive male Wistar rats (225-250 g body weight on receipt) were obtained from Harlan Laboratories (Indianapolis, Ind.), were pair housed in hanging plastic caging on Sani-chips sawdust bedding, and fed ad libitum on Purina 5001 chow. The rats were housed under a controlled light cycle (light from 6 am to 6 pm) at controlled temperature and humidity conditions. Rats were acclimated to the facility for at least 1 week prior to study.
Rats were assigned (n=8/group) to vehicle or one of three dose groups ([…]) according to body weight on day −0.1 to ensure that each group had equal group mean body weight values. The rats were fasted overnight in clean cages overnight (˜15 hours) prior to the intra-peritoneal glucose tolerance test. Body weights were recorded on the morning of the study (post fasting) for dose volume calculation. Blood samples were collected from all rats prior to dosing with vehicle (0.5% methylcellulose) or test compound via oral gavage (5 mL/kg). Sixty minutes later rats were bled and immediately dose with an IP dose of glucose (2 g/kg). The rats were re-bled at 15, 30, 60 and 120 minutes post-glucose load. Blood samples (˜250 μL/time point) were collected into EDTA tubes with aprotinin/DPPIVi (0.6 TIU/20 μL per mL whole blood), for the determination of plasma glucose, insulin, and total amide GLP-1 concentrations. Blood tubes were inverted several times immediately following collection and placed on ice, then spun at 14,000 rpm in a refrigerated centrifuge for 5 minutes. Plasma samples were analyzed for glucose levels using a Roche 912 clinical chemistry analyzer and plasma insulin concentrations were determined using the Alpco Ultra-Sensitive Insulin Rat Elisa.
The results are presented as mean+/−SEM (standard error of the mean) unless otherwise stated. Statistical evaluation of the data is carried out using one-way analysis of variance (ANOVA) with appropriate post-hoc analysis between vehicle and treatment group. Differences compared to vehicle with a P<0.05 were considered statistically significant using Dunnett's T-test.
IPGTT studies were performed with Example 3, either prepared as described above (dosed as a suspension in 0.5% methylcellulose) or prepared as an amorphous dispersion (25% active) with hydroxyproylmethylcellulose-acetate succinate (dosed as a suspension in 0.5% methylcellulose/0.1% polysorbate 80). […] Statistical significance is based on a comparison to the vehicle group.

Setting [3] is: 20 mg/kg SDD (amorphous dispersion 25% active with HPMC-acetate succinate).

Values joined by “and” are separate entries in the source; they are usually repeats but may differ in a detail not shown here. Identical values can stand only once.

As for `CC(C)(C)OC(=O)N1CCC(Oc2cc(N3CCc4cc(S(C)(=O)=O)ccc43)ncn2)C(F)C1` (racemic) [Example 15, tert-Butyl 3-fluoro-4-({6-[5-(methylsulfonyl)-2,3-dihydro-1H-indol-1-yl]pyrimidin-4-yl}oxy)piperidine-1-carboxylate], in test [1], the EC50 was 7.2 nM and 4.09 nM and 2.82 nM; the “Intrinsic Activity (Human B-lactamase)” value was 113% and 112%; the Emax turned out to be 107%.

In the case of `CC(C)OC(=O)N1C[C@H]2COC[C@@H](C1)[C@H]2Oc1cc(N2CCc3cc(S(C)(=O)=O)ccc32)ncn1` [Example 1, Isopropyl 9-anti-({6-[5-(methylsulfonyl)-2,3-dihydro-1H-indol-1-yl]pyrimidin-4-yl}oxy)-3-oxa-7-azabicyclo[3.3.1]nonane-7-carboxylate], in test [1], the EC50 was 75.9 nM and 72.3 nM; the “Intrinsic Activity (Human B-lactamase)” value was 109%; the Emax came to 107%.

Take `CC(C)OC(=O)N1CCC(Oc2cc(N3CCc4cc(S(C)(=O)=O)ccc43)ncn2)CC1` [Example 3, Isopropyl 4-({6-[5-(methylsulfonyl)-2,3-dihydro-1H-indol-1-yl]pyrimidin-4-yl}oxy)piperidine-1-carboxylate]: in test [2] (setting [3]), the “Glucose 0-120 min AUC (percent vehicle response)” value was “++89 percent vehicle response” and the “Insulin AUC (0-60 min) (percent vehicle response)” value was 118 percent vehicle response. Besides, the “Glucose 0-120 min AUC (percent vehicle response)” value in test [2] (20 mg/kg in 0.5% methylcellulose, IP glucose administered 30 minutes post dose) was “++85 percent vehicle response”. Besides, in test [1], the EC50 is 12.6 nM and 29.7 nM and 13.8 nM and 12.3 nM; the “Intrinsic Activity (Human B-lactamase)” value was 102% and 81.8% and 93.4% and 107%.

With `CC(C)OC(=O)N1CCC(Oc2ncnc(N3CCc4cc(S(C)(=O)=O)ccc43)c2C#N)CC1` [Example 6, Isopropyl 4-({5-cyano-6-[5-(methylsulfonyl)-2,3-dihydro-1H-indol-1-yl]pyrimidin-4-yl}oxy)piperidine-1-carboxylate], in test [1], the EC50 is 7.8 nM and 6.45 nM; the “Intrinsic Activity (Human B-lactamase)” value is recorded as 103%; the Emax turned out to be 99.9%.

As for `Cc1c(OC2CCN(C(=O)OC(C)C)CC2)ncnc1N1CCc2cc(S(C)(=O)=O)ccc21` [Example 8, Isopropyl 4-({5-methyl-6-[5-(methylsulfonyl)-2,3-dihydro-1H-indol-1-yl]pyrimidin-4-yl}oxy)piperidine-1-carboxylate], in test [1], the EC50 is 43.5 nM and 57.4 nM; the “Intrinsic Activity (Human B-lactamase)” value is on record as 99.2%; the Emax is 100%.

`CC(C)OC(=O)N1CCC(Oc2cc(N3CCc4cc(C(=O)N(C)C)ccc43)ncn2)CC1` [Example 9, 4-[6-(5-Dimethylcarbamoyl-2,3-dihydroindol-1-yl)-pyrimidin-4-yloxy]-piperidine-1-carboxylic acid isopropyl ester]: in test [1], the EC50 is 37.3 nM and 32.8 nM; the “Intrinsic Activity (Human B-lactamase)” value came to 101%; the Emax turned out to be 100%.

Take `CC(C)OC(=O)N1CCC(Oc2cc(N3CCc4cc(C#N)ccc43)ncn2)CC1` [Example 10, Isopropyl 4-{[6-(5-cyano-2,3-dihydro-1H-indol-1-yl)pyrimidin-4-yl]oxy}piperidine-1-carboxylate]: in test [1], the EC50 is 46.7 nM and 37.2 nM; the “Intrinsic Activity (Human B-lactamase)” value was 85.8%; the Emax amounted to 90%.

For the molecule `CC(C)OC(=O)N1CCC(Oc2cc(N3CCc4cc(S(=O)(=O)CCO)ccc43)ncn2)CC1` [Example 11, Isopropyl 4-[(6-{5-[(2-hydroxyethyl)sulfonyl]-2,3-dihydro-1H-indol-1-yl}pyrimidin-4-yl)oxy]piperidine-1-carboxylate], in test [1], the EC50 stood at 40.7 nM and the Emax stood at 103%.

Take `CC(C)OC(=O)N1CCC(Oc2cc(N3CCc4ncccc43)ncn2)CC1` [Example 12, Isopropyl 4-{[6-(2,3-dihydro-1H-pyrrolo[3,2-b]pyridin-1-yl)pyrimidin-4-yl]oxy}piperidine-1-carboxylate]: in test [1], the EC50 is 2100 nM and 2160 nM; the “Intrinsic Activity (Human B-lactamase)” value is 121%; the Emax came to 110%.

`Cc1c(OC2CCN(C(=O)OC(C)C)CC2)ncnc1N1CCc2ncccc21` [Example 13, Isopropyl 4-{[6-(2,3-dihydro-1H-pyrrolo[3,2-b]pyridin-1-yl)-5-methylpyrimidin-4-yl]oxy}-piperidine-1-carboxylate]: in test [1], the EC50 is 236 nM and 203 nM; the “Intrinsic Activity (Human B-lactamase)” value was 97.8%; the Emax was 92.6%.

As to `Cc1c(O[C@H]2CCN(C(=O)OC3(C)CC3)C[C@H]2F)ncnc1N1CCc2ncccc21` [Example 17, 1-Methylcyclopropyl (3R,4S)-4-{[6-(2,3-dihydro-1H-pyrrolo[3,2-b]pyridin-1-yl)-5-methylpyrimidin-4-yl]oxy}-3-fluoropiperidine-1-carboxylate], the “Insulin 0-60 min AUC (percent vehicle response)” value in test [2] (1 mg/kg oral) is on record as 126 percent vehicle response; in test [2] (10 mg/kg oral), “++162 percent vehicle response”. For the same molecule, the “Total Amide GLP-1 0-120 min AUC (percent vehicle response)” value is 235 percent vehicle response in test [2] (1 mg/kg oral) and 237 percent vehicle response in test [2] (10 mg/kg oral). Also, the “Glucose 0-120 min AUC (percent vehicle response)” value in test [2] (1 mg/kg oral, 60 min before IP glucose 2 g/kg) is 88 percent vehicle response; in test [2] (10 mg/kg oral, 60 min before IP glucose 2 g/kg), “++69 percent vehicle response”.

Regarding `Cc1c(O[C@@H]2[C@@H]3COC[C@H]2CN(C(=O)OC(C)C)C3)ncnc1N1CCc2cc(S(C)(=O)=O)ccc21` [Example 23, Isopropyl (9-syn)-9-({5-methyl-6-[5-(methylsulfonyl)-2,3-dihydro-1H-indol-1-yl]pyrimidin-4-yl}oxy)-3-oxa-7-azabicyclo[3.3.1]nonane-7-carboxylate], the Emax in test [1] came to 97.9%.

As usually defined, the EC50 is the concentration that produces a half-maximal response.

These data come from patent publication US20100285145A1, “GPR 119 MODULATORS” (PFIZER INC, priority 2009, published 2010).
